Source: ChEMBL document CHEMBL1131720, “Phosphofurylalanine, a stable analog of phosphohistidine” (Bioorg Med Chem Lett, 1999)

Legend:
Equus caballus = species on record: Equus caballus; assay: Kinetic resolution using horse liver esterase, 3 U.mL e-1 at 48 hr expressed as percent ee unreacted; assay type: ADME, organism-based; settings: in vivo
[1] = Kinetic resolution using papain, 170 U.mL e-1 at 24 hr expressed as percent ee unreacted; assay type: ADME
Sus scrofa = species on record: Sus scrofa; assay: Kinetic resolution using pig liver esterase, 240 U.mL e-1 at 48 hr expressed as percent ee unreacted; assay type: ADME, organism-based; settings: in vivo
[2] = Kinetic resolution using alpha-chymotrypsin, 375 U.mL e-1 at 72 hr expressed as percent ee unreacted; assay type: ADME

Unreacted drug (Equus caballus)	Unreacted drug [1]	Unreacted drug (Sus scrofa)	Unreacted drug [2]	SMILES
50%	75%	60%		CCOP(=O)(OCC)c1coc(C[C@H](NC(=O)OC(C)(C)C)C(=O)O)c1
60%	> 96%	70%	0%	CCOC(=O)[C@@H](Cc1cc(P(=O)(OCC)OCC)co1)NC(=O)OC(C)(C)C
